Among the data in ChEMBL document CHEMBL5344420, “Flexibility in the bridge of chalcone derivatives is important for the inhibition of cellular growth” (Bioorg Med Chem Lett, 2023) are IC50 values, retold here.

What is called IC50 is the concentration at which inhibition is half-maximal.

The assay relates to A549. Put plainly: Antiproliferative activity against human A549 cells assessed as cell growth inhibition measured after 48 hrs by CellTiter Aqueous One Solution MTS assay. Type of assay: functional, cell-based. The settings on record: A549, 48 h. (Tetrazolium dyes change colour on reduction, which living cells bring about.)
Regarding `O=C(/C=C/c1ccc(O)cc1)c1ccccc1` [4-HYDROXYCHALCONE], the IC50 is 26.6 µM.

`O=C1/C(=C/c2ccc(OC(F)(F)F)cc2)CCc2ccccc21`: the concentration for half-maximal inhibition (IC50) was greater than 30 µM.

With `O=C1/C(=C/c2ccc(F)cc2)CCc2ccccc21`, the concentration for half-maximal inhibition (IC50) is greater than 30 µM. For the compound `COc1ccc(/C=C2\CCc3ccccc3C2=O)cc1`, the IC50 is greater than 30 µM.

In the case of `O=C1/C(=C/c2ccc(O)cc2)CCc2ccccc21`, the IC50 is greater than 30 µM. In the case of `O=C1/C(=C/c2ccc(OC(F)(F)F)cc2)Cc2ccccc21`, the IC50 was greater than 30 µM.

Regarding `O=C1/C(=C/c2ccccc2)CCc2ccccc21`, the half-inhibitory concentration (IC50) is greater than 30 µM. Then `O=C1/C(=C/c2ccccc2)Cc2ccccc21`, with greater than 30 µM; and `COc1ccc(/C=C2\Cc3ccccc3C2=O)cc1`, with greater than 30 µM. With `O=C(/C=C/c1ccc(OC(F)(F)F)cc1)c1ccccc1`, the 50% inhibitory concentration (IC50) was determined as 5.35 µM. On to `Cc1ccc(/C=C2\Cc3ccccc3C2=O)cc1`, for which the half-inhibitory concentration (IC50) is greater than 30 µM. As for `Cc1ccc(/C=C2\CCc3ccccc3C2=O)cc1`, the concentration for half-maximal inhibition (IC50) is greater than 30 µM. With `O=C1/C(=C/c2ccc(O)cc2)Cc2ccccc21` the figure was greater than 30 µM; with `O=C1/C(=C/c2ccc(F)cc2)Cc2ccccc21`, greater than 30 µM; with `O=C(/C=C/c1ccccc1)c1ccccc1` [CHALCONE], 12.2 µM. Regarding `Cc1ccc(/C=C/C(=O)c2ccccc2)cc1`, the IC50 was determined as 16.8 µM. In the case of `COc1ccc(/C=C/C(=O)c2ccccc2)cc1` [4-METHOXY CHALCONE], the half-inhibitory concentration (IC50) came out at 5.2 µM.
